Measurements from patent US5610185A, “Method for the treatment of hyperproliferative epithelial skin diseases by topical application of hydroxylated aromatic protein cross-linking compounds” (The United States of America as represented by the …, priority 1995, dated 1997).
Entries after “also recorded” stand apart in the source; their conditions may differ.

Key:
Type in all cases: cell-based
NIH 3T3 fibroblasts = assay: Protein envelope formation in NIH 3T3 fibroblasts
transglutaminase = assay: Transglutaminase activity in primary mouse keratinocytes
Protocol: FIG. 7. […] Black columns represent untreated cells in 1.4 mM Ca^2+ medium; and hatched columns represent cells treated with 1 mM MC. Cytosol is represented by "C" and membrane fractions are represented by "M". Results are ±SD (n=2) and were repeated in a similar experiment.
One embodiment of the present invention uses an erbstatin analog, methyl 2,5-dihydroxycinnamate, which forms cross-linked protein envelopes in normal and neoplastic epithelial cells by a mechanism independent of tyrosine kinase inhibition. Methyl 2,5-dihydroxycinnamate (MC) is a tyrosine kinase inhibitor. To assess its ability to induce epithelial cell differentiation, crosslinked protein envelopes were measured after a 48 h incubation with agent. […] To confirm differentiation, MC-treated mouse primary keratinocytes were tested for transglutaminase (TGase) activity, inhibition of protein cross-linking by the TGase inhibitor LTB-2 and HPB-2 and incorporation of the fluorescent TGase substrate dansylcadaverine into envelopes. […] This effect, in concert with growth inhibitory properties, may be useful clinically in the topical treatment of warts or superficial neoplasias of the skin.
Mouse primary keratinocytes were incubated in medium with 1.4 mM Ca^2+ for the indicated times. MC-induced cross-linking commences within 4 hours (see FIG. 3). […]

[1] = system: normal human epidermal keratinocytes from foreskin; assay: Cross-linking in primary normal human epidermal keratinocytes; settings: Keratinocyte, read-out: concentration for response in cross-linking
Text: The increased sensitivity of mouse primary keratinocytes for the cross-linking effect is not related to the normal phenotype. […] Hydroxylated aromatic protein crosslinking compounds induce the cross-linking of cell proteins into cornified envelope-like structures, causing cell death by a non-biological mechanism which emulates the normal differentiation program of epidermal keratinocytes. In addition to their growth inhibitory properties, the unique protein cross-linking ability of the class of compounds described in the instant invention proffers a new mechanism for the topical treatment of hyperproliferative diseases of the skin.

[2] = system: SQCC-Y1 human squamous carcinoma cells; assay: Cornified envelope (cross-linked protein) assay, SQCC-Y1 cells; settings: SQCC-Y1, 48 h, 0.1-1 mM
[3] = system: SP-1 benign tumor mouse keratinocytes; assay: Cornified envelope (cross-linked protein) assay, SP-1 cells
Text: FIG. 1. MC Increases Cross-linked Protein in Epidermal Cell Lines. Black squares represent HPV 18 human epithelial keratinocytes; black circles represent SV 40 infected human keratinocytes; black triangles represent (SQCC-Y1) cells; white triangles represent (SP-1) benign tumor mouse keratinocytes; white squares represent (308 cells) benign mouse keratinocytes; and white circles represent (I-7) cells mouse squamous cell carcinoma.
FIGS. 2A and 2B, 2C and 2D show color phase contrast photographs. SP-1 cells were treated with vehicle (A and C) or 250 μM MC (B and D) for 48 hours. In A and B phase contrast photomicrographs were taken.
Primary mouse keratinocytes were isolated from BALB/c newborn mouse skin. […]
Cells were incubated with MC for 48 hours, then cross-linked protein was isolated and measured as described in Example 1.
The assay measures insoluble cross-linked protein envelopes as described (Hough-Monroe et al. Analytical biochem., 199, 25-28, 1991), with modifications as follows. […] Absorbance of eluate was measured on a Titertek plate reader at 600 nm.

**Q.** For `COC(=O)C=Cc1cc(O)ccc1O` [MC, methyl 2,5-dihydroxycinnamate], which “effect of DTT on cross-linking by MC” value (NIH 3T3 fibroblasts; 3T3 cells, simultaneous DTT 20 mM, 37° and 4° C.) is on record?
**A.** prevented cross-linking

**Q.** What about the “protein envelopes induced in NIH 3T3 fibroblasts” value (NIH 3T3 fibroblasts; even when incubated at 4° C. in phosphate buffered saline) of the same compound?
**A.** induced protein envelopes

**Q.** What about the transglutaminase activity (transglutaminase; 1 mM MC, 4 hrs, cytosol and membrane fractions) of the same compound?
**A.** not stimulated; also recorded: does not Increase Transglutaminase Activity

**Q.** What about the “involvement of transglutaminase in the mode of action” value (transglutaminase; TGase activity, TGase inhibitors LTB-2 and HPB-2, dansylcadaverine incorporation) of the same compound?
**A.** refuted the involvement of TGase

**Q.** What about the minimal effective concentration [1] of the same compound?
**A.** ≥ 250 µM

**Q.** And the “cross-linked protein (envelope production)” value [2]?
**A.** induced crosslinked envelope production; also recorded: increased cross-linked protein in a dose-dependent manner

**Q.** And the “formation of cross-linked cornified envelopes (phase contrast)” value ([3]; SP-1, 250 μM, 48 hours)?
**A.** formation of cross-linked cornified envelopes

**Q.** What about the “cross-linked protein (envelope production)” value ([3]; SP-1, 48 h, 0.1-1 mM) of the same compound?
**A.** induced crosslinked envelope production; also recorded: increased cross-linked protein in a dose-dependent manner
